Where two headings read alike, the source gives them in different places.
Legend:
[1] = Population PK model of AZD7687 plasma concentrations in SAD and MAD studies (2-compartment, first order absorption); type: in vivo; settings: human
Experimental: Full details of the study protocols have previously been reported by Denison et al14 for Single Ascending Dose study (SAD) and Denison et al16 for the Multiple Ascending Dose Study (MAD). In brief, in the SAD, 80 healthy male subjects were enrolled.
(§1) Full description of all the PK models is provided in supplementary section S1.
Models were implemented using nonlinear mixed effects modeling in Phoenix NLME, version 1.3 (Certara). The analysis was conducted using the first order conditional estimation (FOCE‐ELS) during the sequential and simultaneous analysis (the expectation maximization method (QRPEM) was used for the simultaneous fitting of the human data due to speed and ability to converge).
Inter-individual variability was estimated on CL, V1, V2 and ka parameters according to a log-normal distribution of individual parameters. […] Residual error was characterized with a proportional plus additive error model.

[2] = PK model of AZD7687 plasma concentrations during rat OLTT (1-compartment); type: in vivo
Experimental: (§2) Full description of the OLTT in the rat has been published previously.17 In brief, 53 male Han‐Wistar rats (∼230 g), previously maintained on a chow diet, were fasted for 14 hours. […] Six remaining animals were kept untreated and served as naive controls.
as §1
(§3) As PK data was only collected for 11h post dose, the ability to fit complex PK models was limited. The aim of the PK fitting was to describe the kinetics of the compound during the OLTT instead of a full characterization of the PK properties of the compound. […] Inter-individual variability was estimated on CL and V parameters according to a log-normal distribution of individual parameters. […] Residual error was characterized with a proportional plus additive error model.

[3] = PK model of AZD7687 plasma concentrations during mouse OLTT (1-compartment); type: in vivo
Experimental: Oral Lipid Tolerance Test in the mouse was carried out in a similar way to rats.
as §1
as §3, with “4h” for “11h”, “As with the rat, the” for “The”, “parameters. Correlation between Cl and V parameters was allowed.” for “parameters.”, “proportional” for “proportional plus additive”

[4] = tested on: plasma TAG; test: PK/PD model of plasma TAG after Oral Lipid Tolerance Test (corn oil); settings: rat OLTT, free plasma concentration, read-out: IC50 (free in vivo IC50, inhibition of exogenous TAG contribution to plasma)
Experimental: as §2
Biological plausibility combined with stable parameter estimation was used in the evaluation of different potential PK/PD models to help select the optimal one. The key components of the final PK/PD TAG model are described in Figure 1. The introduction of exogenous TAG into the system is represented by a first order process from the lipid depot compartment (assumed to be the gut) to the central compartment (plasma). A lag time to accommodate the time delay from ingestion of the fatty meal to the resulting increase in plasma TAG was needed. In addition, there is an endogenous production and removal of TAG from plasma described with a turnover model controlled by the turnover rate (kin) (production) and the fractional turnover rate (kout) (loss). Turnover model was reparameterized using the relationship of kin to baseline plasma TAG (R0) (R0 = kin/kout) to increase numerical stability.
KaTAG is the absorption rate of exogenous TAG into plasma, VTAG is the volume of distribution of exogenous TAG, and TlagTAG is the time delay for the absorption of TAG from the SMM. […]

[5] = tested on: plasma TAG; settings: human SAD OLTT study, iAUC analysis of plasma TAG vs plasma concentration at start of meal test; read-out: in vivo IC50, previously published; cited from earlier work
[6] = tested on: plasma TAG; parameters: method as in PMID 23116186; settings: cited from earlier work
[7] = parameters: method as in PMID 23116186; settings: human plasma; cited from earlier work
[8] = tested on: DGAT1 (in liver microsomes); parameters: method as in Barlind_2012; settings: human liver microsomes; ref Barlind_2012; read-out: In vitro potency (IC50) against DGAT1; cited from earlier work
[9] = tested on: DGAT1 (in liver microsomes); parameters: method as in Barlind_2012; settings: rat liver microsomes; ref Barlind_2012; read-out: In vitro potency (IC50) against DGAT1; cited from earlier work
[10] = tested on: DGAT1 (in liver microsomes); parameters: method as in Barlind_2012; settings: mouse liver microsomes; ref Barlind_2012; read-out: In vitro potency (IC50) against DGAT1; cited from earlier work
[11] = tested on: HuTu 80 (Human gastrointestinal tumor cell line); parameters: method as in Barlind_2012; settings: HuTu 80 cells; ref Barlind_2012; read-out: In vitro potency (IC50) in HuTu 80; cited from earlier work
[12] = human; cited from earlier work
[13] = rat plasma; cited from earlier work
[14] = mouse plasma; cited from earlier work
[15] = tested on: plasma TAG; test: PK/PD model of plasma TAG after Oral Lipid Tolerance Test (Intralipos 20%)
[16] = tested on: plasma TAG; test: PK/PD model of plasma TAG after Oral Lipid Tolerance Test (standardized mixed meal)
[17] = using free concentrations in plasma

Cc1nc(C)c(-c2ccc(C3CCC(CC(=O)O)CC3)cc2)nc1C(N)=O (stereo not drawn) [AZD7687]
Cl (tvCL, apparent clearance) [1, 17]: 28.1 L/h
V2 (tvV2, peripheral volume of distribution) [1, 17]: 136.8 L
Tmax ([1]; male, plasma, post dose, oral, read-out: T max in plasma): ≤ 1 h
Vd ([1]; male, oral, using free concentrations in plasma, read-out: V (tvV1, central volume of distribution)): 320 L
IIV V ([2]; in vivo): 11.7%
CL/F ([2]; male, Han-Wistar, oral, supplement, free concentrations in plasma, read-out: tvCl (apparent clearance) (converted)): 12.2 mL/min/kg
clearance ([2]; male, Han-Wistar, plasma, oral, Table 1, free concentrations): 12.2 mL/min
V ([3]; Table 1, free concentrations): 13.14 L
CL/F ([3]; male, ICR, oral, supplement, free concentrations in plasma, read-out: tvCl (apparent clearance) (converted)): 36.2 mL/min/kg
Vd ([3]; male, ICR, oral, supplement, free concentrations in plasma, read-out: tvV (apparent volume of distribution)): 13.1 L/kg
clearance ([3]; male, ICR, plasma, oral, Table 1, free concentrations): 36.2 mL/min
IC50 [4]: 162 nM
IC50 [5]: 20 nM
IC50 ([6]; rat OLTT study, single time point data for plasma TAG and PK, read-out: in vivo IC50, previously published): 42 nM
effect on TAG excursion after OLTT ([6]; rats, exposure dependant): reduces the TAG excursion
free fraction (fu) [7]: 0.055
IC50 [8]: 70 nM
IC50 [9]: 150 nM
IC50 [10]: 100 nM
IC50 [11]: 10 nM
side effects leading to stop of clinical development [12]: intolerable side effects
free fraction (fu) [13]: 0.03
free fraction (fu) [14]: 0.1
IC50 ([15]; Mus musculus, po, read-out: IC50 (free in vivo IC50, inhibition of exogenous TAG contribution to plasma), mouse OLTT, free plasma concentration): 81 nM
IC50 ([15]; read-out: IC50 (free in vivo IC50, inhibition of exogenous TAG contribution to plasma), mouse OLTT, free plasma concentration): 80 nM
IC50 ([16]; Homo sapiens, po, read-out: IC50 (free in vivo IC50, inhibition of exogenous TAG contribution to plasma), human OLTT, free plasma concentration): 8 nM
IC50 ([16]; read-out: IC50 (free in vivo IC50, inhibition of exogenous TAG contribution to plasma), human OLTT, free plasma concentration): 7.8 nM

— paper PMC6408865 (Pharmacology Research & Perspectives, 2019)
